Measurements reported in patent publication US6531453B1, “NKT cell activators containing α-glycosylceramides” (Kirin Beera Kabushiki Kaisha, priority 1997, dated 2003).

Columns and labels:
[1] = Acute toxicity test by a single administration; type: in vivo; conditions: mouse, in vivo, 10 mg/kg; intravenous, single administration, mice
Description: (§1) The compound of Example 1 was intravenously administered to mice.

mice = experiment: Acute toxicity test by a single administration; type: in vivo; conditions: intravenous, 10 mg/kg
Description: as §1

[2] = test system: spleen cells of RAG-1KO/Vα14tg/Vβ8.2tg mice (NKT cells); experiment: Stimulation of NKT cell proliferation, [3H]thymidine incorporation in spleen cells; type: cell-based, mouse; conditions: 2 days incubation
Description: Stimulation of NKT cell proliferation by compounds having an α-glycosylceramide structure was studied using spleen cells of RAG-1KO/Vα14tg/Vβ8.2tg mice shown in Pharmacological Test Example 1.
Spleen cells were prepared from the spleen of RAG-1KO/Vα14tg/Vβ8.2tg mice by conventional methods. These spleen cells were suspended at 2×10^6 cells/ml in an RPMI 1640 medium supplemented with 10% FCS, and 100 μl each of the suspension were plated into wells of 96-well round-bottomed plates. Ten different kinds of compounds having an α-glycosylceramide structure shown in FIG. 12 were added to the wells of the plates at a final concentration of 1, 10 or 100 ng/ml, and the plates were incubated for 2 days. Sixteen hours after the addition of [^3H] thymidine (0.5 μCi/well), the cells were harvested. The amount of [^3H] thymidine incorporated into the cells was measured by a liquid scintillation counter.

MRL lpr/lpr mice [3] = experiment: Survival period of MRL lpr/lpr mice; type: in vivo, mouse; conditions: 100 μg/kg i.p. twice a week from the age of 5 weeks, 10 animals per group; all vehicle mice died within 250 days, FIG. 4
Description: Ten animals per group of female MRL lpr/lpr mice were used for the following experiment. MLR mice purchased at the age of 4 weeks were randomly divided into 2 groups (10 animals per group). A vehicle (a physiological saline solution containing 0.025% Polysolvate 20) or KRN 7000 (100 μg/kg) was intraperitoneally administered twice a week (on Tuesday and Friday) to the animals starting from the age of 5 weeks. Survival of the animals was observed every day.

[4] = test system: mouse lymphoma YAC-1 cells; experiment: Cytotoxic activity of spleen NKT cells against tumor cells (4 hour 51Cr-release) after i.v. administration to RAG-1KO/Vα14tg/Vβ8.2tg mice; type: in vivo; conditions: 100 μg/kg i.v., spleen taken 24 hours later, FIG. 1
Description: A vehicle (physiological saline containing 0.025% Polysolvate 20) or 100 μg/kg of KRN 7000 was intravenously administered to RAG-1KO/Vα14tg/Vβ8.2tg mice (bearing a large number of NKT cells but not B cells, T cells or NK cells in their lymphocyte fraction), and 24 hours later, the spleen was taken out from each mouse to prepare spleen cells by conventional methods. RAG-1KO/Vαl14tg/Vβ8.2tg mice were established by deletion of the RAG-1 gene and forcible expression of Vα14 and Vβ8.2 gene (Kawano T. et al., Science, 278, 1626-1629 (1997)). Thesemice are available from Masaru Taniguchi, School of Medicine, Chiba University. Cytotoxic activity of these spleen cells to mouse lymphoma YAC-1 cells was studied by the 4 hour-^51Cr-release method (Kobayashi, E. et al., Oncology Res., 7, 529 ([…])).

[5] = test system: C57BL/6 mice with MOG-induced EAE; experiment: Suppression of the onset of experimental autoimmune encephalomyelitis (EAE); type: in vivo, mouse; conditions: 20 μg/kg i.p. on days 1, 5, 8, 12 and 15, FIG. 6B
Description: […]. Mice were immunized by subcutaneously injecting this emulsion on day 0 and day 7. Further, 500 ng of pertussis toxin were intraperitoneally administered on day 1 and […] induce experimental autoimmune encephalomyelitis (EAE) in mice. The animals were divided into 2 groups, i.e., a group to which 20 μg/kg of KRN 7000 were intraperitoneally administered on days 1, 5, 8, 12 and 15 and a group to which a vehicle (0.5%, Polysolvate 20) was administered in a similar manner. The level of EAE symptoms was observed every day.

pregnant C57BL/6 mice = experiment: Induction of abortion in pregnant C57BL/6 mice; type: in vivo, mouse
Description: C57BL/6 mice (Japan SLC) were used for the following experiment. The day when a vaginal plug was observed was defined as day 0. Pregnant mice were divided into 2 groups (6 mice per group), i.e., one group to which 150 μg/kg of KRN 7000 were intravenously administered on days 7, 8 and 9, and another to which PBS (phosphate-buffered saline) was administered in the same way. On day 12, the uterus was removed to observe the state of the embryo.

MRL lpr/lpr mice [6] = experiment: Suppression of lymph node swelling in MRL lpr/lpr mice; type: in vivo, mouse; conditions: 100 μg/kg i.p. twice a week from the age of 11 weeks
Description: Ten animals per group of female MRL lpr/lpr mice (Sakamoto, A. Clin. Immunol., 28, 1558 (1966)), were used for the following experiment. During the observation of 21 MRL mice purchased at the age of 6 weeks, swelling of the axillary lymph nodes was recognized in one mouse at the age of 10 weeks. Accordingly, the other 20 mice were randomly divided into 2 groups. A vehicle (a physiological saline solution containing 0.025% Polysolvate 20) or KRN 7000 (100 μg/kg) was intraperitoneally administered twice a week (on Tuesday and Friday) to the abovementioned 2 groups of animals starting from the age of 11 weeks. Axillary and inguinal lymph nodes were examined twice a week to observe the progress of lymph node swelling with time. The lymph nodes were scored into 4 grades, i.e., −(0), +(1), ++(2) and +++(3) as a function of size. The total scores of both right and left sides of the axillary lymph node (A) or inguinal lymph node (B) were expressed as lymph node swelling indexes as shown in FIG. 3.

CCCCCCCCCCCCCCCCCCCCCCCCCC(=O)N[C@@H](CO[C@H]1O[C@H](CO)[C@H](O)[C@H](O)[C@H]1O)[C@H](O)[C@H](O)CCCCCCCCCCCCCC [KRN 7000, (2S,3S,4R)-1-(α-D-galactopyranosyloxy)-2-hexacosanoylamino-3,4-octadecanediol]
LD50 [1]: > 10 mg/kg
toxicity symptoms (mice): no particular symptom
[3H] Thymidine incorporation (cpm) ([2]; 1 ng/ml, vehicle 2090): 40064 cpm
[3H] Thymidine incorporation (cpm) ([2]; 10 ng/ml, vehicle 2056): 74669 cpm
[3H] Thymidine incorporation (cpm) ([2]; 100 ng/ml, vehicle 2014): 102543 cpm
mice surviving at 350 days after the start of the administration (MRL lpr/lpr mice [3]): three mice
cytotoxic activity against YAC-1 cells of spleen cells vs vehicle-administered mice [4]: significantly higher
mice that died of EAE ([5]; 10 mice, vehicle: 80% died): 2
mice showing the EAE onset ([5]; vehicle: all mice): 4 out of 10
embryos dead and resorbed (pregnant C57BL/6 mice; 150 μg/kg i.v. on days 7, 8 and 9, uterus on day 12, of the total of 36 embryos): 12
abortion rate (pregnant C57BL/6 mice; 150 μg/kg i.v. on days 7, 8 and 9, PBS group 5.6%): 33%
swelling in the axillary lymph nodes with aging (MRL lpr/lpr mice [6]; FIG. 3A): clearly suppressed
swelling in the inguinal lymph nodes with aging (MRL lpr/lpr mice [6]; FIG. 3B): clearly suppressed
